In brackets after ≈: the same amount, converted by molar mass. Like-named read-outs stand apart in the source and are kept apart here.
Key:
[1] = system: Escherichia coli CCM 3954, ATCC 25922; assay: Antibacterial microdilution broth MIC, EC; format: cell-based
[2] = system: Staphylococcus epidermidis CCM 4418, ATCC 12228; assay: Antibacterial microdilution broth MIC, SE; format: cell-based
[3] = system: Lichtheimia corymbifera CCM 8077; assay: Antifungal microdilution broth MIC, LC
[4] = system: Staphylococcus aureus subsp. aureus CCM 4750, ATCC 43300 (MRSA); assay: Antibacterial microdilution broth MIC, MRSA; format: cell-based; conditions: Staphylococcus aureus
[5] = system: Acinetobacter baumannii DSM 30007, ATCC 19606; assay: Antibacterial microdilution broth MIC, ACI; format: cell-based
[6] = system: Candida albicans CCM 8320, ATCC 24433; assay: Antifungal microdilution broth MIC, CA
[7] = system: Pseudomonas aeruginosa CCM 3955, ATCC 27853; assay: Antibacterial microdilution broth MIC, PA; format: cell-based
[8] = system: Klebsiella pneumoniae CCM 4415, ATCC 10031; assay: Antibacterial microdilution broth MIC, KP
[9] = system: Candida parapsilosis CCM 8260, ATCC 22019; assay: Antifungal microdilution broth MIC, CP; conditions: Lodderomyces parapsilosis
[10] = system: Candida krusei CCM 8271, ATCC 6258; assay: Antifungal microdilution broth MIC, CK; conditions: Pichia kudriavzevii
[11] = system: Candida tropicalis CCM 8264, ATCC 750; assay: Antifungal microdilution broth MIC, CT
[12] = system: Enterococcus faecalis CCM 4224, ATCC 29212; assay: Antibacterial microdilution broth MIC, EF; format: cell-based
[13] = system: Aspergillus fumigatus ATCC 204305; assay: Antifungal microdilution broth MIC, AF
[14] = system: Mycolicibacterium aurum DSM 43999; assay: Antimycobacterial microdilution broth MIC (resazurin), M. aurum; format: cell-based; conditions: DSM43999, read-out: MIC M. aurum
[15] = system: Mycolicibacterium smegmatis DSM 43465; assay: Antimycobacterial microdilution broth MIC (resazurin), M. smegmatis; format: cell-based; conditions: DSM43465, read-out: MIC M. smegmatis
[16] = system: Trichophyton interdigitale CCM 8377, ATCC 9533; assay: Antifungal microdilution broth MIC, TI; conditions: Trichophyton interdigitale
[17] = system: Staphylococcus aureus CCM 4223, ATCC 29213; assay: Antibacterial microdilution broth MIC, SA; format: cell-based; conditions: Staphylococcus aureus
HepG2 cell line = assay: Cytotoxicity CellTiter 96, HepG2; format: cell-based, human; conditions: Homo sapiens, HepG2, 24 h, 24 h incubation; ^c compound precipitated in the testing medium; ^d over the limit of tested concentrations
[18] = system: Mycobacterium tuberculosis H37Ra; assay: Antimycobacterial microdilution broth MIC (resazurin), Mtb H37Ra; format: cell-based; conditions: for MIC: Mycobacterium tuberculosis, H37RA, read-out: MIC Mtb H37Ra; for SI (selectivity index): SI = HepG2 IC50 (μM)/MIC MtbH37Ra (μM), calculated for compounds with MIC ≤ 31.25 μg/mL
[19] = system: Aspergillus flavus CCM 8363; assay: Antifungal microdilution broth MIC, AFla
[20] = CCM8077, 24 h, read-out: MIC LC 24h
[21] = CCM8077, 48 h, read-out: MIC LC 48h
[22] = ATCC204305, 24 h, read-out: MIC AF 24h
[23] = ATCC204305, 48 h, read-out: MIC AF 48h
[24] = CCM8363, 24 h, read-out: MIC AFla 24h
[25] = CCM8363, 48 h, read-out: MIC AFla 48h

| SMILES | MIC ([1]; 24 h, read-out: MIC EC 24h) [µM] | MIC ([1]; 48 h, read-out: MIC EC 48h) [µM] | MIC ([2]; 24 h, read-out: MIC SE 24h) [µM] | MIC ([2]; 48 h, read-out: MIC SE 48h) [µM] | MIC [3, 20] [µM] | MIC [3, 21] [µM] | MIC ([4]; 24 h, read-out: MIC MRSA 24h) [µM] | MIC ([4]; 48 h, read-out: MIC MRSA 48h) [µM] | MIC ([5]; 24 h, read-out: MIC ACI 24h) [µM] | MIC ([5]; 48 h, read-out: MIC ACI 48h) [µM] | MIC ([6]; 24 h, read-out: MIC CA 24h) [µM] | MIC ([6]; 48 h, read-out: MIC CA 48h) [µM] | MIC ([7]; 24 h, read-out: MIC PA 24h) [µM] | MIC ([7]; 48 h, read-out: MIC PA 48h) [µM] | MIC KP 24h [8] [µM] | MIC KP 48h [8] [µM] | MIC ([9]; 24 h, read-out: MIC CP 24h) [µM] | MIC ([9]; 48 h, read-out: MIC CP 48h) [µM] | MIC ([10]; 24 h, read-out: MIC CK 24h) [µM] | MIC ([10]; 48 h, read-out: MIC CK 48h) [µM] | other results |
| --- | --- | --- | --- | --- | --- | --- | --- | --- | --- | --- | --- | --- | --- | --- | --- | --- | --- | --- | --- | --- | --- |
| O=C(Cc1ccccc1)Nc1ccc(Cl)cn1 [Compound 2] | > 500 | > 500 | > 500 | > 500 | > 500 | > 500 | > 500 | > 500 | > 500 | > 500 | > 500 | > 500 | > 500 | > 500 | > 500 | > 500 | > 500 | > 500 | > 500 | > 500 | MIC ([11]; 24 h, read-out: MIC CT 24h): > 500 µM; MIC ([11]; 48 h, read-out: MIC CT 48h): > 500 µM; MIC ([12]; 24 h, read-out: MIC EF 24h): > 500 µM; MIC ([12]; 48 h, read-out: MIC EF 48h): > 500 µM; MIC [13, 22]: > 500 µM; MIC [13, 23]: > 500 µM; MIC [14]: 500 µg/mL (≈ 2030 µM); MIC [15]: 500 µg/mL (≈ 2030 µM); MIC ([16]; 72 h, read-out: MIC TI 72h): > 500 µM; MIC ([16]; 120 h, read-out: MIC TI 120h): > 500 µM; MIC ([17]; 24 h, read-out: MIC SA 24h): > 500 µM; MIC ([17]; 48 h, read-out: MIC SA 48h): > 500 µM; IC50 (HepG2 cell line): > 100 µM; MIC ([18]; Calculated from MIC (μg/mL)): 63.3 µM; MIC [18]: 15.6 µg/mL; SI (selectivity index) [18]: > 1.6; MIC [19, 24]: > 500 µM; MIC [19, 25]: > 500 µM |
| O=C(Cc1ccccc1)Nc1cccc(Cl)n1 [Compound 3] | > 500 | > 500 | > 500 | > 500 | > 500 | > 500 | > 500 | > 500 | > 500 | > 500 | > 500 | > 500 | > 500 | > 500 | > 500 | > 500 | 500 (≈ 123 µg/mL) | > 500 | 250 (≈ 61.7 µg/mL) | 500 (≈ 123 µg/mL) | MIC ([11]; 24 h, read-out: MIC CT 24h): > 500 µM; MIC ([11]; 48 h, read-out: MIC CT 48h): > 500 µM; MIC ([12]; 24 h, read-out: MIC EF 24h): > 500 µM; MIC ([12]; 48 h, read-out: MIC EF 48h): > 500 µM; MIC [13, 22]: > 500 µM; MIC [13, 23]: > 500 µM; MIC [14]: 62.5 µg/mL (≈ 253 µM); MIC [15]: 15.6 µg/mL (≈ 63.3 µM); MIC ([16]; 72 h, read-out: MIC TI 72h): 125 µM (≈ 30.8 µg/mL); MIC ([16]; 120 h, read-out: MIC TI 120h): 250 µM (≈ 61.7 µg/mL); MIC ([17]; 24 h, read-out: MIC SA 24h): 500 µM (≈ 123 µg/mL); MIC ([17]; 48 h, read-out: MIC SA 48h): 500 µM (≈ 123 µg/mL); IC50 (HepG2 cell line): 433 µM; MIC ([18]; Calculated from MIC (μg/mL)): 127 µM; MIC [18]: 31.2 µg/mL; SI (selectivity index) [18]: 3.42; MIC [19, 24]: > 500 µM; MIC [19, 25]: > 500 µM |
| COc1ccccc1CC(=O)Nc1ccccn1 [Compound 4] | > 500 | > 500 | > 500 | > 500 | > 500 | > 500 | > 500 | > 500 | > 500 | > 500 | > 500 | > 500 | > 500 | > 500 | > 500 | > 500 | > 500 | > 500 | > 500 | > 500 | MIC ([11]; 24 h, read-out: MIC CT 24h): > 500 µM; MIC ([11]; 48 h, read-out: MIC CT 48h): > 500 µM; MIC ([12]; 24 h, read-out: MIC EF 24h): > 500 µM; MIC ([12]; 48 h, read-out: MIC EF 48h): > 500 µM; MIC [13, 22]: > 500 µM; MIC [13, 23]: > 500 µM; MIC [14]: 250 µg/mL (≈ 1030 µM); MIC [15]: > 500 µg/mL; MIC ([16]; 72 h, read-out: MIC TI 72h): > 500 µM; MIC ([16]; 120 h, read-out: MIC TI 120h): > 500 µM; MIC ([17]; 24 h, read-out: MIC SA 24h): > 500 µM; MIC ([17]; 48 h, read-out: MIC SA 48h): > 500 µM; IC50 (HepG2 cell line): > 1000 µM; MIC ([18]; Calculated from MIC (μg/mL)): 516 µM; MIC [18]: 125 µg/mL; MIC [19, 24]: > 500 µM; MIC [19, 25]: > 500 µM |

From publication PMC11748363, “Antimicrobial and Antiproliferative Properties of 2‐Phenyl‐N‐(Pyridin‐2‐yl)acetamides” (Chemical Biology & Drug Design, 2025)
